Source: patent US12419873B2, “Use of JAK inhibitors in preparation of drugs for treating JAK kinase-related diseases” (ZHUHAI UNITED LABORATORIES CO., LTD., priority 2020, dated 2025)
“Also recorded” adds a separate entry of the source.

Legend:
[1] = system: DNCB induced allergic dermatitis in mice; assay: In vivo pharmacodynamic study on DNCB induced allergic dermatitis (AD) in mice
Procedure: The animal allergic dermatitis model induced by 1-chloro-2,4-dinitrobenzene (DNCB) is basically consistent with the clinical manifestations of AD patients.
Preparation method of solvent: vehicle solution is 30% PEG-400+70% (5% HP-β-CD), pH 4-5. Firstly, 35 g HP-β-CD was dissolved in 700 mL MilliQ pure water, 300 mL PEG-400 was added and mixed well, the pH was adjusted to 4-5, and stored at room temperature.
Preparation method of compounds: the compounds were weighed and added to 30% PEG-400+ 70% (5% HP-β-CD) solution (by volume), and ultrasonically processed. After the solution was fully mixed, it is load into glass bottles and stored in a 4° C. refrigerator.
Seventy male Balb/c mice were weighed and randomly divided into 7 groups with 10 mice in each group.
The animal adaptation period was 3 days. It was adapted to shaving on the back. After 2 days, it was sensitized with the modeling solution, coated with 20 μL 0.5% DNCB solution on the right ear of the mouse, applied with 200 μL 0.5% DNCB solution on the back, once a day for 3 days. The mice were stimulated from day 4, and applied with 10 μL 1% DNCB solution on the right ear of mice, 100 μL 1% DNCB solution on the back of mice, respectively, once every 3 days.
On days 3, 9, 15, 21, and 27, the severity of specific dermatitis was evaluated by evaluating four clinical inflammatory indicators of atopic dermatitis: Erythema/bleeding, scar/dryness, edema, and infiltration/erosion. Each evaluation index has four grades: 0, none; 1. slight; 2. moderate; 3. obvious; 4. very obvious. Sum the scores represents score of the skin. […] The spleen was taken and the spleen index was calculated: spleen index=spleen weight (mg)/body weight (g).
The experimental data were expressed by means±standard error (Mean±SEM), and all data were statistically analyzed by one-way ANOVA, with P<0.05 as the statistical difference.

TYK2 = TYK2 (Homo sapiens (Human), UniProt P29597); assay: In vitro activity test of TYK2 kinase; assay type: biochemical
Chain of TYK2 (P29597 whole entry): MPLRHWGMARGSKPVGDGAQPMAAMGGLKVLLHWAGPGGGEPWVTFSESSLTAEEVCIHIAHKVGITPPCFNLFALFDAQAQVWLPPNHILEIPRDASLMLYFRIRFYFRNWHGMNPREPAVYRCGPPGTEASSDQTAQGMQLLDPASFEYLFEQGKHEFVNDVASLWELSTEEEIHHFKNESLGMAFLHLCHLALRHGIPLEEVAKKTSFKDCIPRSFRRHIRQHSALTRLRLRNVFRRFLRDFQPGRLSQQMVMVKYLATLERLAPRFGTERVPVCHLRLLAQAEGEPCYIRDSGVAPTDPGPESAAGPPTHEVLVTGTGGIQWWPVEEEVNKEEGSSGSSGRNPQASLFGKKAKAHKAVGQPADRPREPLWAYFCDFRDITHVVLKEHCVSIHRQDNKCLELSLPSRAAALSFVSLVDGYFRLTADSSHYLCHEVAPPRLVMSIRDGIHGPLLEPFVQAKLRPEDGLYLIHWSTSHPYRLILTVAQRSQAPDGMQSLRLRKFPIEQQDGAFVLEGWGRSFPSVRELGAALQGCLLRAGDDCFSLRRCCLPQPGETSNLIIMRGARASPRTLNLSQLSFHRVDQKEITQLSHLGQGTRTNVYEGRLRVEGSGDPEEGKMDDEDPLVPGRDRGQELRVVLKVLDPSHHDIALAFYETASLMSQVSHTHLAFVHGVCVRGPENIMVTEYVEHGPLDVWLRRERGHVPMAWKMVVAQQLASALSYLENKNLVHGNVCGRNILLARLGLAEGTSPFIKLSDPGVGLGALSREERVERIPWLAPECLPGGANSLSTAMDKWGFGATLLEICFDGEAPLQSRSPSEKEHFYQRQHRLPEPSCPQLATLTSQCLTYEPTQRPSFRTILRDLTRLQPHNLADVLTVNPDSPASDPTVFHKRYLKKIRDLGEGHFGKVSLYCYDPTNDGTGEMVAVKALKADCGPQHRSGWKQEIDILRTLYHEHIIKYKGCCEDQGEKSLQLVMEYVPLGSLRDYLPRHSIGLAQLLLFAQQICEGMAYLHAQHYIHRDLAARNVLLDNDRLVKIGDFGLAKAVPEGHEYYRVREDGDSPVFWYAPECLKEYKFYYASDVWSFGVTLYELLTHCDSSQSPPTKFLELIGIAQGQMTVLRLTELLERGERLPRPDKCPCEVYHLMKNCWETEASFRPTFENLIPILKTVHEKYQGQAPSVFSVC
Procedure: (§1) Recombinant human JAK1, JAK2, JAK3, TyK2 protease, main instruments and reagents were provided by Eurofins in the UK
(§2) All compounds were prepared into a 100% DMSO solution and reached 50 times the final determined concentration. The test compound was diluted by 3 times the concentration gradient, and the final concentration was 10 μM to 0.001 μM, 9 concentrations in total, and the content of DMSO in the detection reaction was 2%. The working stock solution of the compound was added to a determination hole as the first component of the reaction, and then the remaining components were added according to the detailed scheme determination below.
(§3) Mg/ATP mixture was added to start the reaction. After incubation at room temperature for 40 minutes, 0.5% phosphoric acid was added to stop the reaction.

JAK1 = JAK1 (Homo sapiens (Human), UniProt P23458); assay: In vitro activity test of JAK1 kinase; assay type: biochemical
Chain of JAK1 (P23458 whole entry): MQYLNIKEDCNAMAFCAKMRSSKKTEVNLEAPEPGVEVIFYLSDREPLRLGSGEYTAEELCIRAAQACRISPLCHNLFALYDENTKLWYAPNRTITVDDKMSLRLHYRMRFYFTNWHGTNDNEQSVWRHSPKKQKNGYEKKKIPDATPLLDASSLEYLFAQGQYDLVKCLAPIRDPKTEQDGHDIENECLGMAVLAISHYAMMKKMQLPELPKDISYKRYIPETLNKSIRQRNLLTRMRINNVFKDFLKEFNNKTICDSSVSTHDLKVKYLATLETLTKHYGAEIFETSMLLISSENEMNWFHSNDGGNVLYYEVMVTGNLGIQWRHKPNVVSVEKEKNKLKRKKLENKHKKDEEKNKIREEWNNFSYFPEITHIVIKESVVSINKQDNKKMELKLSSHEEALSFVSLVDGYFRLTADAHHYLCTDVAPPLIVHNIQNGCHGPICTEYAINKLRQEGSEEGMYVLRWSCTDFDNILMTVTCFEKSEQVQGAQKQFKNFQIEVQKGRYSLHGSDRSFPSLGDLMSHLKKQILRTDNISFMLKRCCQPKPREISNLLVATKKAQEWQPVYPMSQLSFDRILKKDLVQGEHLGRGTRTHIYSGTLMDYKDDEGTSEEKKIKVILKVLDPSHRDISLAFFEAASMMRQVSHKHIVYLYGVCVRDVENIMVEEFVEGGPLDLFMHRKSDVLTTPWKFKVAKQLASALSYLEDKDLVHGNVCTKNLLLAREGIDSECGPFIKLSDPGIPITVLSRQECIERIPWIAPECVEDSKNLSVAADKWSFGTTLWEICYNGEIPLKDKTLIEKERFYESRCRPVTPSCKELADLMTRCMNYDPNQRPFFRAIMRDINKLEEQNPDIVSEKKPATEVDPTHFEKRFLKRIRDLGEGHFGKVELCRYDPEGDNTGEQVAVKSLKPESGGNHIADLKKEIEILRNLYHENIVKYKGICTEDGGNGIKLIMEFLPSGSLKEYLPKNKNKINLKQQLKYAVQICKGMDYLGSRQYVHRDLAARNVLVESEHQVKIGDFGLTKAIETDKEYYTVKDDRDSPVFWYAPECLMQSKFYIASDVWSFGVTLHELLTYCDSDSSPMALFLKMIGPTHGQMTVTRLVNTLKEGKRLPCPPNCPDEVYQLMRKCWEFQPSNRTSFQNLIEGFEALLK
Procedure: as §1, §2, §3

JAK2 = JAK2 (Homo sapiens (Human), UniProt O60674); assay: In vitro activity test of JAK2 kinase; conditions: read-out: JAK2 (IC50)
Chain of JAK2 (O60674 whole entry): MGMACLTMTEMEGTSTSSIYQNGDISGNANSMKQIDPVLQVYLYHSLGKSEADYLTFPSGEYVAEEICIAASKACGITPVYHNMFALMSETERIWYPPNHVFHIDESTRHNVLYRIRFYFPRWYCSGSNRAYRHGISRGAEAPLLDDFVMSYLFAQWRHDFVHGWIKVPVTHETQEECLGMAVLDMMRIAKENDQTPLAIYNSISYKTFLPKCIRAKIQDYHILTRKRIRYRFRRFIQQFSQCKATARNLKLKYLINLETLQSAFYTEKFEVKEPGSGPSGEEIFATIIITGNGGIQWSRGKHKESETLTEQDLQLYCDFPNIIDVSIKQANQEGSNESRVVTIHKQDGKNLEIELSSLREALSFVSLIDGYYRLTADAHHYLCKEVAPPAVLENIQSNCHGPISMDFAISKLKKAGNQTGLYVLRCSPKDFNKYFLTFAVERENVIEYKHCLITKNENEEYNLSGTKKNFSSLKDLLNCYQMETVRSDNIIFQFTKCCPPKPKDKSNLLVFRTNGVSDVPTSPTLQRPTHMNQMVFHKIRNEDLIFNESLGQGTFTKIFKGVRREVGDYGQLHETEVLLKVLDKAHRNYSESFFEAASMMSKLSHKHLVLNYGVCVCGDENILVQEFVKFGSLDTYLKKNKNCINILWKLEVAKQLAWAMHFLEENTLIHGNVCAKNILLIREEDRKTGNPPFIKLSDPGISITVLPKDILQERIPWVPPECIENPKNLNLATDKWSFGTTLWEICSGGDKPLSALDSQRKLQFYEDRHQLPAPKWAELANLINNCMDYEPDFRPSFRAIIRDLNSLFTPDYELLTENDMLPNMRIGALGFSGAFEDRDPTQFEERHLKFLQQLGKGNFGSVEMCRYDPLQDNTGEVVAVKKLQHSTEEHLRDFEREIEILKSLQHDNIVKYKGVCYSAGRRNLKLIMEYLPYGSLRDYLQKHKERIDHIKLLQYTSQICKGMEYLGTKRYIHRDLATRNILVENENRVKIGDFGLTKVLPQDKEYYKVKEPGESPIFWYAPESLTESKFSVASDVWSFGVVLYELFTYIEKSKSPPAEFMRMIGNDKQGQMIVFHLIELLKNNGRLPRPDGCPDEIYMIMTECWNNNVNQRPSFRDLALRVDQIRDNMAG

JAK3 = JAK3 (Homo sapiens (Human), UniProt P52333); assay: In vitro activity test of JAK3 kinase; assay type: biochemical
Chain of JAK3 (P52333 whole entry): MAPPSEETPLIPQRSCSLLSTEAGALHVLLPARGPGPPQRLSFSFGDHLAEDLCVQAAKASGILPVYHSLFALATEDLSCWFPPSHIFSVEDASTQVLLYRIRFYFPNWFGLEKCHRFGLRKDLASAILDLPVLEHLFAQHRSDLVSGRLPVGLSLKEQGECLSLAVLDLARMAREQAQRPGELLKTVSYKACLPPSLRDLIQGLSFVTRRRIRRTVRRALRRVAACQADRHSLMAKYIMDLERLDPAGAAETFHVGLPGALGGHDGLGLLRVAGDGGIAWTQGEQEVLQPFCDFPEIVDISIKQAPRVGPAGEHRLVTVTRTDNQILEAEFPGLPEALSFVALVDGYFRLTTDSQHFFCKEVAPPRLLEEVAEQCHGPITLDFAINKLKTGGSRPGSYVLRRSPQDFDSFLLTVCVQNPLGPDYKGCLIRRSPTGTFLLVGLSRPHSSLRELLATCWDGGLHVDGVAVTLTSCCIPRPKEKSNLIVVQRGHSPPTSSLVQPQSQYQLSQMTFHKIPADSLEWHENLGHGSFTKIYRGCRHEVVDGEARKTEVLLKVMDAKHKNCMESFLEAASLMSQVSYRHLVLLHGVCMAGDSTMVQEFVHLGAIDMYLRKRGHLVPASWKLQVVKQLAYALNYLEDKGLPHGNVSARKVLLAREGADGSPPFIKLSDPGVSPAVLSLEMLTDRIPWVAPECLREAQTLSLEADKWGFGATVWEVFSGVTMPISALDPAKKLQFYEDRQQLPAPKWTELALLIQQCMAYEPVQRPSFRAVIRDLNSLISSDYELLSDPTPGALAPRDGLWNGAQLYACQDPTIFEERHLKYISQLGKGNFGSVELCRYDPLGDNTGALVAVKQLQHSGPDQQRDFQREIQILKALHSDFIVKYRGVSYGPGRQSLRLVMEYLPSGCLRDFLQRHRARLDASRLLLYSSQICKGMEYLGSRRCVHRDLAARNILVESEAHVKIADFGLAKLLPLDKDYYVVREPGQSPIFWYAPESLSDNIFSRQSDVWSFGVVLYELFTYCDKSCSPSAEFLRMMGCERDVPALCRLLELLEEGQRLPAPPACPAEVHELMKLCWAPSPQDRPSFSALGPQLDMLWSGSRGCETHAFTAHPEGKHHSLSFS
Procedure: as §1, §2, §3

[2] = system: DSS induced ulcerative colitis and Crohn's disease in mice; assay: In vivo pharmacodynamic study on DSS induced inflammatory bowel disease (IBD) in mice; parameters: species or system mice (C57BL/6); Colon length: unit not given here; conditions: for Colon length: after the experiment
Excerpt: Inflammatory bowl disease (IBD) is a kind of recurrent disease. It is difficult to cure, has a high recurrence rate, and has a poor prognosis, it has a certain correlation with the incidence of colon cancer. The development of drugs for the treatment of IBD will help alleviate the symptoms of ulcerative colitis and Crohn's disease and improve the quality of life of patients. The mouse inflammation model induced by dextran sulfate sodium (DSS) is similar to the human disease ulcerative colitis and Crohn's disease. It is a common classical model for preclinical evaluation of drug efficacy.
Preparation method of DSS: 20 g DSS was weighed, 1000 mL drinking water was added to form 2% DSS solution, and stored in a 4° C. refrigerator. It is effective within one month.
Preparation method of a solvent: Vehicle solution is an aqueous solution containing 0.5% methylcellulose and 0.5% Tween 80. Firstly, 5 g of methylcellulose was dissolved in 990 mL of pure water, then 5 g of Tween 80 was added in small amount for many times, mixed evenly and stored at room temperature.
Preparation method of compounds: the compound was weighed, an aqueous solution with a mass ratio of 0.5% methylcellulose+0.5% Tween 80 was added, and it was processed by ultrasonic until it was dissolved.
The adaptation period of the animals was 3 days. After adaptation, the animals were weighed every day. The blank group was given drinking water, and the other groups were given drinking water containing 2% DSS. The water volume was 5 mL/animal/day. The animals in the test drug group were administrated by gavage once a day. The blank group and […] group were given the same volume of vehicle, with the administration volume of 10 mL/kg. Every other day, the fecal viscosity was evaluated, feces were collected for fecal occult blood detection, and the disease activity index (DAI) score was calculated. DSS consumption was detected every day. Fresh DSS solution was replaced every two days. The dosing cycle was continuous intragastric administration for 7 days, followed by 4 days of drug withdrawal, followed by 7 days of continuous intragastric administration. Normal drinking water was changed when intragastric administration was stopped.
DAI is the sum of the scores of body weight, fecal viscosity and fecal occult blood. Among them, the semi quantitative detection method of piramine cave was adopted for detecting fecal occult blood, including adding piramine cave to the sample first, then adding hydrogen peroxide and ethanol solution, and reading and scoring the color within 2 min. Immediately generating purple blue is marked as 4+, generating the purple blue within 10 s is marked as 3+, generating purple red within 1 min is marked as 2+, and gradually generating the purple red within 1-2 min is marked as 1+, and generating no color reaction of purple orchid or purple red within the reading time is recorded as negative (−). After the experiment, the colon and spleen were taken, and the length of colon and the weight of spleen were measured. The spleen index was the ratio of spleen weight to body weight.

[3] = after the experiment, 30 mg/kg p.o. qd, 28 days, Mean±SEM
[4] = day 3, 30 mg/kg p.o. qd from day 4, Mean±SEM
[5] = day 9, 30 mg/kg p.o. qd, Mean±SEM
[6] = day 15, 30 mg/kg p.o. qd, Mean±SEM
[7] = day 21, 30 mg/kg p.o. qd, Mean±SEM
[8] = day 21 of administration, 30 mg/kg p.o.
[9] = day 27, 30 mg/kg p.o. qd, Mean±SEM
[10] = day 2, 30 mg/kg p.o. qd, Mean±SEM
[11] = day 4, 30 mg/kg p.o. qd, Mean±SEM
[12] = day 6, 30 mg/kg p.o. qd, Mean±SEM
[13] = day 8, 30 mg/kg p.o. qd, Mean±SEM
[14] = day 10, 30 mg/kg p.o. qd, Mean±SEM
[15] = day 12, 30 mg/kg p.o. qd, Mean±SEM
[16] = day 13, 30 mg/kg p.o. qd, Mean±SEM
[17] = day 14, 30 mg/kg p.o. qd, Mean±SEM
[18] = day 16, 30 mg/kg p.o. qd, Mean±SEM
[19] = day 18, 30 mg/kg p.o. qd, Mean±SEM
[20] = day 2, 15 mg/kg p.o. qd, Mean±SEM
[21] = day 4, 15 mg/kg p.o. qd, Mean±SEM
[22] = day 6, 15 mg/kg p.o. qd, Mean±SEM
[23] = day 8, 15 mg/kg p.o. qd, Mean±SEM
[24] = day 12, 15 mg/kg p.o. qd, Mean±SEM
[25] = day 14, 15 mg/kg p.o. qd, Mean±SEM
[26] = day 16, 15 mg/kg p.o. qd, Mean±SEM
[27] = day 18, 15 mg/kg p.o. qd, Mean±SEM

O=C(Nc1nc2cccc(C3CCC4(CC3)CN(C(=O)[C@@H]3CC3(F)F)C4)n2n1)C1CC1 [Compound 1-13]
Effect on treating allergic dermatitis (in words) ([1]; 30 mg/kg p.o. qd, DNCB mice): good disease treatment effect; also recorded: significant effect
Thickness of the right ear after drug intervention (in words) ([1]; 30 mg/kg p.o., vs DNCB group): significantly decreased
Thickness of the right ear [1, 3]: 0.232 ± 0.004
Skin score [1, 4]: 0.5 ± 0.5
Skin score [1, 5]: 3.9 ± 1.6
Skin score [1, 6]: 3.7 ± 0.6
Skin score [1, 7]: 5.0 ± 1.0
Effect on skin score compared with positive drug Alonson [1, 8]: better effect
Skin score compared with DNCB group (in words) [1, 8]: significantly decreased
Skin score [1, 9]: 1.5 ± 0.5
Skin score compared with DNCB group (in words) ([1]; day 27 of administration, 30 mg/kg p.o.): significant reduction

N#CCN1CC2(CCC(c3cccc4nc(NC(=O)[C@H]5CC5(F)F)nn34)CC2)C1 [Compound 8-9]
IC50 (TYK2): 1330 nM
IC50 (JAK1): 52 nM
IC50 (JAK2): 3670 nM
IC50 (JAK3): > 10 µM

O=C(Nc1nc2cccc(C3CCC4(CC3)CN(C(=O)[C@H]3CC3(F)F)C4)n2n1)[C@H]1CC1(F)F [Compound 8-6]
IC50 (TYK2): 127 nM
IC50 (JAK1): 14 nM
IC50 (JAK2): 110 nM
IC50 (JAK3): 7.64 µM

O=C(Nc1nc2cccc([C@@H]3CCC4(C3)CN(C(=O)[C@@H]3CC3(F)F)C4)n2n1)C1CC1 [Compound 7-8]
IC50 (TYK2): 404 nM
IC50 (JAK1): 176 nM
IC50 (JAK3): > 10 µM

N#CCN1CC2(CCC(c3cccc4nc(NC(=O)[C@@H]5CC5(F)F)nn34)CC2)C1 [Compound 9-6]
IC50 (TYK2): 1390 nM
IC50 (JAK1): 432 nM
IC50 (JAK2): 1170 nM
IC50 (JAK3): > 10 µM

O=C(Nc1nc2cccc([C@H]3CCC4(C3)CN(C(=O)[C@@H]3CC3(F)F)C4)n2n1)C1CC1 (single isomer, unassigned) [Compound 7-7]
IC50 (TYK2): 830 nM
IC50 (JAK1): 63 nM
IC50 (JAK3): > 10 µM

N#CCCN1CC2(CCC(c3cccc4nc(NC(=O)C5CC5)nn34)CC2)C1 [Compound 1-17]
IC50 (TYK2): 371 nM
IC50 (JAK1): 65 nM
IC50 (JAK3): > 10 µM

O=C(Nc1nc2cccc(-c3ccc(CN4CCS(=O)(=O)CC4)cc3)n2n1)C1CC1 [Filgotinib, reference compound]
Colon shortening caused by DSS, compared with DSS group (in words) ([2]; 30 mg/kg p.o.): can reduce colon shortening
Increase of spleen index induced by DSS (in words) ([2]; 30 mg/kg p.o.): could reduce the increase of spleen index
Significance of inhibition of spleen index increase ([2]; 30 mg/kg p.o., vs DSS group): significant inhibitory effect
Colon length ([2]; 30 mg/kg p.o. qd, Mean±SEM): 3.13 ± 0.10
Weight of mice ([2]; day 1, 30 mg/kg p.o. qd, Mean±SEM): 22.10 ± 0.42
DAI score [2, 10]: 1.20 ± 0.42
Weight of mice [2, 10]: 22.35 ± 0.41
Weight of mice ([2]; day 3, 30 mg/kg p.o. qd, Mean±SEM): 22.11 ± 0.31
DAI score [2, 11]: 2.20 ± 0.61
Weight of mice [2, 11]: 22.07 ± 0.38
Weight of mice ([2]; day 5, 30 mg/kg p.o. qd, Mean±SEM): 21.61 ± 0.47
DAI score [2, 12]: 2.90 ± 0.43
Weight of mice [2, 12]: 21.21 ± 0.55
Weight of mice ([2]; day 7, 30 mg/kg p.o. qd, Mean±SEM): 20.28 ± 0.47
DAI score [2, 13]: 6.40 ± 0.69
Weight of mice [2, 13]: 19.65 ± 0.47
Weight of mice [2, 5]: 18.57 ± 0.49
Weight of mice [2, 14]: 17.98 ± 0.62
Weight of mice ([2]; day 11, 30 mg/kg p.o. qd, Mean±SEM): 17.85 ± 0.80
DAI score [2, 15]: 3.56 ± 0.82
Weight of mice [2, 15]: 18.27 ± 0.91
Weight of mice [2, 16]: 19.21 ± 0.94
DAI score [2, 17]: 3.00 ± 0.57
Weight of mice [2, 17]: 20.16 ± 0.61
Weight of mice [2, 6]: 21.11 ± 0.58
DAI score [2, 18]: 3.00 ± 0.96
Weight of mice [2, 18]: 21.09 ± 0.53
Weight of mice ([2]; day 17, 30 mg/kg p.o. qd, Mean±SEM): 20.58 ± 0.38
DAI score [2, 19]: 3.52 ± 0.73
Weight of mice [2, 19]: 19.59 ± 0.34
Spleen index ([2]; ratio of spleen weight to body weight, 30 mg/kg p.o. qd, Mean±SEM): 4.04 ± 0.18

N#CC1(C(=O)N2CC3(CCC(c4cccc5nc(NC(=O)C6CC6)nn45)CC3)C2)CC1 [Compound 1-11]
Colon length ([2]; 15 mg/kg p.o. qd, Mean±SEM): 2.84 ± 0.21
Weight of mice ([2]; day 1, 15 mg/kg p.o. qd, Mean±SEM): 22.63 ± 0.29
DAI score [2, 20]: 0.30 ± 0.15
Weight of mice [2, 20]: 22.64 ± 0.28
Weight of mice ([2]; day 3, 15 mg/kg p.o. qd, Mean±SEM): 22.20 ± 0.28
DAI score [2, 21]: 1.50 ± 0.34
Weight of mice [2, 21]: 21.75 ± 0.25
Weight of mice ([2]; day 5, 15 mg/kg p.o. qd, Mean±SEM): 20.90 ± 0.30
DAI score [2, 22]: 3.50 ± 0.27
Weight of mice [2, 22]: 20.33 ± 0.28
Weight of mice ([2]; day 7, 15 mg/kg p.o. qd, Mean±SEM): 20.64 ± 0.38
DAI score [2, 23]: 4.20 ± 0.79
Weight of mice [2, 23]: 20.44 ± 0.58
Weight of mice ([2]; day 9, 15 mg/kg p.o. qd, Mean±SEM): 19.49 ± 0.77
Weight of mice ([2]; day 10, 15 mg/kg p.o. qd, Mean±SEM): 19.00 ± 0.87
Weight of mice ([2]; day 11, 15 mg/kg p.o. qd, Mean±SEM): 19.73 ± 0.77
DAI score [2, 24]: 3.11 ± 0.49
Weight of mice [2, 24]: 20.09 ± 0.90
Weight of mice ([2]; day 13, 15 mg/kg p.o. qd, Mean±SEM): 20.88 ± 0.86
DAI score [2, 25]: 3.22 ± 0.79
Weight of mice [2, 25]: 20.67 ± 0.84
Weight of mice ([2]; day 15, 15 mg/kg p.o. qd, Mean±SEM): 20.82 ± 0.91
DAI score [2, 26]: 4.44 ± 0.67
Weight of mice [2, 26]: 20.41 ± 1.05
Weight of mice ([2]; day 17, 15 mg/kg p.o. qd, Mean±SEM): 19.85 ± 1.05
DAI score [2, 27]: 5.89 ± 0.51
Weight of mice [2, 27]: 18.84 ± 1.06
Effect on the weight of mice (in words) ([1]; 30 mg/kg p.o. qd, 28 days): no significant effect
IgE concentration in serum [1, 3]: 7.46 ± 1.34
Thickness of the right ear [1, 3]: 0.283 ± 0.006
Weight of mice ([1]; day 1, 30 mg/kg p.o. qd from day 4, Mean±SEM): 19.45 ± 0.59
Skin score [1, 4]: 0.9 ± 0.3
Weight of mice [1, 11]: 20.15 ± 0.46
Skin score [1, 5]: 3.6 ± 1.1
Weight of mice [1, 14]: 20.21 ± 0.62
Weight of mice [1, 16]: 20.24 ± 0.41
Skin score [1, 6]: 4.4 ± 0.8
Weight of mice [1, 18]: 20.63 ± 0.43
Weight of mice ([1]; day 19, 30 mg/kg p.o. qd, Mean±SEM): 22.50 ± 0.40
Skin score [1, 7]: 5.4 ± 0.7
Weight of mice ([1]; day 22, 30 mg/kg p.o. qd, Mean±SEM): 23.97 ± 0.42
Weight of mice ([1]; day 25, 30 mg/kg p.o. qd, Mean±SEM): 22.45 ± 0.36
Skin score [1, 9]: 2.9 ± 1.2
Weight of mice ([1]; day 28, 30 mg/kg p.o. qd, Mean±SEM): 22.66 ± 0.34
